Source: patent US10040791B2, “Isoxazole derivative as mutant isocitrate dehydrogenase 1 inhibitor” (Daiichi Sankyo Company, Limited, priority 2014, dated 2018)

Tests used:
[1] = test system: HT-1080 cells expressing IDH1R132C; experiment: 2-HG production inhibitory activity using HT1080 cell; assay type: cell-based, human; settings: Homo sapiens, HT-1080; 2-HG production, HT1080 cells; read-out: Test Example 3 IC50
Procedure: Then, 100 μL of growth medium B was added to each well, further 25 μL of a solution of each compound diluted to a predetermined concentration with growth medium B was added to each well, and the cells were incubated at 37° C. for 2 days under 5% CO2. […] Then, 150 μL of ultrapure water was further added to each well, and the mixture was stirred by pipetting and stored at −20° C.
The preserved solutions were thawed at room temperature.

[2] = target: IDH1R132C (Homo sapiens (Human), UniProt O75874, R132C); experiment: Inhibitory activity against IDH1R132C enzyme (NADPH detection, WST-8); assay type: biochemical; settings: 10 nM, residual NADPH detected with WST-8, read-out: Test Example 1 IDH1 R132C IC50
IDH1R132C, sequence (O75874 whole entry R132C): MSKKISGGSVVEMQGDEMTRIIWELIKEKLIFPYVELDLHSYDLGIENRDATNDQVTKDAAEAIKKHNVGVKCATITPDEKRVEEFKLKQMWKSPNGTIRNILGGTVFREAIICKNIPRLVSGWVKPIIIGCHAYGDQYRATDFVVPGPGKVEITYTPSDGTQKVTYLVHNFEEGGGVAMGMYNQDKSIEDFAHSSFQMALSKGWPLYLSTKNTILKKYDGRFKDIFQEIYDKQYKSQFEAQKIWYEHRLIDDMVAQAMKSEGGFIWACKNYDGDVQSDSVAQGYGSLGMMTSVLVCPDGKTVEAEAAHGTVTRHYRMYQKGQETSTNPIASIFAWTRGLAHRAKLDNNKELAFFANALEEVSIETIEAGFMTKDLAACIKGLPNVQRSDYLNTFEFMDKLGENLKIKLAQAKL
Procedure: After transformation of Rosetta 2 (DE3) E. coli, the expression of the protein was induced with IPTG.
While NADPH-derived fluorescence was occasionally monitored, the reaction was terminated by the addition of 5 μL of 0.5 M EDTA before consumption of NADPH. 5 μL of WST-8 reagent (Dojindo Laboratories, #CK04) was further added and mixed therewith. 15 minutes later, the absorbance at 450 nm was measured using a plate reader (PerkinElmer, Inc., EnVision). The observed absorbance value reflects the amount of residual NADPH. From the absorbance data, the enzyme inhibitory activity of each compound at each concentration was calculated and analyzed using medical statistical analysis software GraphPad Prism to calculate an IC50 value.

| IC50 [1] [nM] | IC50 [2] [nM] | Compound |
| --- | --- | --- |
| 428 | 94 | CC1(c2onc(-c3c(Cl)cccc3Cl)c2C(=O)n2ccc3c(/C=C/C(=O)O)cccc32)CCO1 (centres unmarked) [Example 77, (2E)-3-(1-{[3-(2,6-Dichlorophenyl)-5-(2-methyloxetan-2-yl)-1,2-oxazol-4-yl]carbonyl}-1H-indol-4-yl)prop-2-enoic acid] |
| 99 | 335 | COCC1(c2onc(-c3c(Cl)cc(Cl)cc3Cl)c2C(=O)n2cc(C)c3c(/C=C/C(=O)O)cccc32)CCC1 [Example 80, (2E)-3-(1-{[5-[1-(Methoxymethyl)cyclobutyl]-3-(2,4,6-trichlorophenyl)-1,2-oxazol-4-yl]carbonyl}-3-methyl-1H-indol-4-yl)prop-2-enoic acid] |
| 10 | 96 | Cc1cn(C(=O)c2c(-c3c(Cl)cc(Cl)cc3Cl)noc2C2(N(C)C)CC2)c2cccc(/C=C/C(=O)O)c12 [Example 82, (2E)-3-(1-{[5-[1-(Dimethylamino)cyclopropyl]-3-(2,4,6-trichlorophenyl)-1,2-oxazol-4-yl]carbonyl}-3-methyl-1H-indol-4-yl)prop-2-enoic acid] |
| 15 | 80 | CNC(C)(C)c1onc(-c2c(Cl)cc(Cl)cc2Cl)c1C(=O)n1cc(C)c2c(/C=C/C(=O)O)cccc21 [Example 84, (2E)-3-[3-Methyl-1-({5-[2-(methylamino)propan-2-yl]-3-(2,4,6-trichlorophenyl)-1,2-oxazol-4-yl]carbonyl}-1H-indol-4-yl)prop-2-enoic acid] |
| 9 | 99 | CNC(C)(C)c1onc(-c2c(Cl)cc(Cl)cc2Cl)c1C(=O)n1cc2c3c(cccc31)/C(=C/C(=O)O)CC2 [Example 85, (2E)-[1-({5-[2-(Methylamino)propan-2-yl]-3-(2,4,6-trichlorophenyl)-1,2-oxazol-4-yl}carbonyl)-3,4-dihydrobenzo[cd]indol-5(1H)-ylidene]ethanoic acid] |
| 33 | 79 | CNC1(c2onc(-c3c(Cl)cc(Cl)cc3Cl)c2C(=O)n2cc3c4c(cccc42)/C(=C/C(=O)O)CC3)CC1 [Example 86, (2E)-[1-({5-[1-(Methylamino)cyclopropyl]-3-(2,4,6-trichlorophenyl)-1,2-oxazol-4-yl}carbonyl)-3,4-dihydrobenzo[cd]indol-5(1H)-ylidene]ethanoic acid] |
| 61 | 158 | Cc1cn(C(=O)c2c(-c3c(Cl)cc(Cl)cc3Cl)noc2C2(CN(C)C)CCC2)c2cccc(/C=C/C(=O)O)c12 [Example 88, (2E)-3-(1-{[5-{1-[(Dimethylamino)methyl]cyclobutyl}-3-(2,4,6-trichlorophenyl)-1,2-oxazol-4-yl]carbonyl}-3-methyl-1H-indol-4-yl)prop-2-enoic acid] |
| 37 | 185 | Cc1cn(C(=O)c2c(-c3c(Cl)cc(Cl)cc3Cl)noc2C2(C(=O)N(C)C)CCC2)c2cccc(/C=C/C(=O)O)c12 [Example 89, (2E)-3-(1-{[5-[1-(Dimethylcarbamoyl)cyclobutyl]-3-(2,4,6-trichlorophenyl)-1,2-oxazol-4-yl]carbonyl}-3-methyl-1H-indol-4-yl)prop-2-enoic acid] |
| 36 | 59 | Cc1cn(C(=O)c2c(-c3c(Cl)cc(Cl)cc3Cl)noc2C2(N)CCC2)c2cccc(/C=C/C(=O)O)c12 [Example 90, (2E)-3-(1-{[5-(1-Aminocyclobutyl)-3-(2,4,6-trichlorophenyl)-1,2-oxazol-4-yl]carbonyl}-3-methyl-1H-indol-4-yl)prop-2-enoic acid] |
| 23 | 120 | Cc1cn(C(=O)c2c(-c3c(Cl)cc(Cl)cc3Cl)noc2C(C)(C)N(C)C)c2cccc(/C=C/C(=O)O)c12 [Example 91, (2E)-3-[1-({5-[2-(Dimethylamino)propan-2-yl]-3-(2,4,6-trichlorophenyl)-1,2-oxazol-4-yl}carbonyl)-3-methyl-1H-indol-4-yl]prop-2-enoic acid] |
| 9 | 80 | CN(C)C1(c2onc(-c3c(Cl)cc(Cl)cc3Cl)c2C(=O)n2cc3c4c(cccc42)/C(=C/C(=O)O)CC3)CC1 [Example 92] |
| 290 | 422 | C=CC(=O)N1CCCC(c2onc(-c3c(Cl)cc(Cl)cc3Cl)c2C(=O)n2ccc3c(/C=C/C(=O)O)cccc32)C1 (centres unmarked) [Example 96] |
| 162 | 164 | C=CC(=O)N1CC(OC)(c2onc(-c3c(Cl)cc(Cl)cc3Cl)c2C(=O)n2ccc3c(/C=C/C(=O)O)cccc32)C1 [Example 97] |
| 34 | 116 | C=CC(=O)N1CC(C)(c2onc(-c3c(Cl)cc(Cl)cc3Cl)c2C(=O)n2ccc3c(/C=C/C(=O)O)cccc32)C1 [Example 98] |
| 32 | 189 | C#CC(=O)N1CC(c2onc(-c3c(Cl)cc(Cl)cc3Cl)c2C(=O)n2ccc3c(/C=C/C(=O)O)cccc32)C1 [Example 101] |
| 50 | 117 | C=CC(=O)N1CCC(c2onc(-c3c(Cl)cccc3Cl)c2C(=O)n2ccc3c(/C=C/C(=O)O)cccc32)CC1 [Example 102] |

| IC50 [1] [nM] | IC50 [2] [nM] | Compound |
| --- | --- | --- |
| 10 | 188 | C=CC(=O)N1CCC(C)(c2onc(-c3c(Cl)cc(Cl)cc3Cl)c2C(=O)n2ccc3c(/C=C/C(=O)O)cccc32)CC1 [Example 111] |
| 13 | 149 | C=CC(=O)N1CCC(O)(c2onc(-c3c(Cl)cc(Cl)cc3Cl)c2C(=O)n2cc(C)c3c(/C=C/C(=O)O)cccc32)CC1 [Example 123] |
| 22 | 125 | C=CC(=O)N1CC2C(C1)C2c1onc(-c2c(Cl)cc(Cl)cc2Cl)c1C(=O)n1cc(C)c2c(/C=C/C(=O)O)cccc21 (centres unmarked) [Example 124] |
| 8 | 149 | C=CC(=O)N1CCC(c2onc(-c3c(Cl)cc(Cl)cc3Cl)c2C(=O)n2cc(C)c3c(/C=C/C(=O)O)cccc32)(N(C)C)CC1 [Example 126] |
| 10 | 182 | C=CC(=O)N1CCC(c2onc(-c3ccc(Cl)c(F)c3Cl)c2C(=O)n2cc(C)c3c(/C=C/C(=O)O)cccc32)CC1 [Example 129] |
| 28 | 279 | C=CC(=O)N1CCC(c2noc(-c3c(Cl)cc(Cl)cc3Cl)c2C(=O)n2ccc3c(/C=C/C(=O)O)cccc32)CC1 [Example 132, (2E)-3-(1-{[3-(1-Acryloylpiperidin-4-yl)-5-(2,4,6-trichlorophenyl)-1,2-oxazol-4-yl]carbonyl}-1H-indol-4-yl)prop-2-enoic acid] |
| 390 | 93 | CN(C)c1onc(-c2c(Cl)cccc2Cl)c1C(=O)n1ccc2c(/C=C/C(=O)O)cccc21 [Example 133, (2E)-3-(1-{[3-(2,6-Dichlorophenyl)-5-(dimethylamino)-1,2-oxazol-4-yl]carbonyl}-1H-indol-4-yl)prop-2-enoic acid] |
| 347 | 143 | CCN(CC)c1onc(-c2c(Cl)cccc2Cl)c1C(=O)n1ccc2c(/C=C/C(=O)O)cccc21 [Example 134, (2E)-3-(1-{[3-(2,6-Dichlorophenyl)-5-(diethylamino)-1,2-oxazol-4-yl]carbonyl}-1H-indol-4-yl)prop-2-enoic acid] |
| 376 | 122 | O=C(O)/C=C/c1cccc2c1ccn2C(=O)c1c(-c2c(Cl)cccc2Cl)noc1N1CCCC1 [Example 135, (2E)-3-(1-{[3-(2,6-Dichlorophenyl)-5-(pyrrolidin-1-yl)-1,2-oxazol-4-yl]carbonyl}-1H-indol-4-yl)prop-2-enoic acid] |
| 335 | 140 | O=C(O)/C=C/c1cccc2c1ccn2C(=O)c1c(-c2c(Cl)cccc2Cl)noc1N1CCOCC1 [Example 136, (2E)-3-(1-{[3-(2,6-Dichlorophenyl)-5-(morpholin-4-yl)-1,2-oxazol-4-yl]carbonyl}-1H-indol-4-yl)prop-2-enoic acid] |
| 299 | 189 | C[C@@H]1CCC[C@H](C)N1c1onc(-c2c(Cl)cccc2Cl)c1C(=O)n1ccc2c(/C=C/C(=O)O)cccc21 [Example 137, (2E)-3-(1-{[3-(2,6-Dichlorophenyl)-5-(cis-2,6-dimethylpiperidin-1-yl)-1,2-oxazol-4-yl]carbonyl}-1H-indol-4-yl)prop-2-enoic acid] |
| 288 | 88 | CN(C)c1onc(-c2c(Cl)cc(Cl)cc2Cl)c1C(=O)n1ccc2c(/C=C/C(=O)O)cccc21 [Example 138] |
| 166 | 130 | C=CC(=O)N1CCN(c2onc(-c3c(Cl)cccc3Cl)c2C(=O)n2ccc3c(/C=C/C(=O)O)cccc32)C(C)(C)C1 [Example 153, (2E)-3-(1-{[5-(4-Acryloyl-2,2-dimethylpiperazin-1-yl)-3-(2,6-dichlorophenyl)-1,2-oxazol-4-yl]carbonyl}-1H-indol-4-yl)prop-2-enoic acid] |
| 253 | 95 | C=CC(=O)N1CC2(CC2)N(c2onc(-c3c(F)cccc3Cl)c2C(=O)n2cc(C)c3c(/C=C/C(=O)O)cccc32)C[C@H]1C [Example 162, (2E)-3-[1-({5-[(6R)7-Acryloyl-6-methyl-4,7-diazaspiro[2.5]oct-4-yl]-3-(2-chloro-6-fluorophenyl)-1,2-oxazol-4-yl}carbonyl)-3-methyl-1H-indol-4-yl]prop-2-enoic acid] |
| 186 | 81 | Cn1cc(C(=O)c2c(-c3c(Cl)cc(Cl)cc3Cl)noc2C2(C)CC2)c2cccc(/C=C/C(=O)O)c21 [Example 165] |
